Laboratory results published in patent US11938098B2, “Method for killing HIV-infected cells using Bcl-2 inhibitors” (Mayo Foundation for Medical Education and Research, priority 2015, dated 2024).

How the values were obtained:
[1] = system: Jurkat T cells stably expressing eGFP; experiment: Apoptosis and marker loss in Jurkat T cells stably expressing eGFP treated with CPT; assay type: cell-based
Experimental: FIGS. 12A-12G. Apoptotic cell death is associated with loss of protein and mRNA markers. Jurkat T cells stably expressing eGFP were treated with DMSO or CPT and assessed for cell viability by ATP content (FIG. 12A) and light scatter (FIG. 12B) over time. FIG. 12C, Expression of eGFP was measured by flow cytometry. FIG. 12D, Actin mRNA expression was assessed by qRT-PCR and expressed as mean Ct values normalized to baseline DMSO control. FIGS. 12E-12G, Cell death was assessed by active-caspase 3 expression (FIG. 12E), TUNEL (FIG. 12F), and LIVE/DEAD viability stain (FIG. 12G) and compared between eGFP positive and eGFP negative cells. FIG. 12A-12D values represent mean (range) of two independent experiments. FIGS. 12E-12G are representative of two independent experiments.
If BCL-2 neutralizes Casp8p41, then antagonizing BCL-2 should augment Casp8p41-induced killing, including when Casp8p41 is generated by latently HIV infected cells that reactivate the virus. Before testing this possibility, whether select markers (protein or nucleic acid based) remain detectable was first assessed when the cell of interest is undergoing death. Jurkat T cells stably expressing eGFP were treated with vehicle control or the cytotoxic quinolone alkaloid CPT to induce apoptosis, then examined for expression of eGFP (as a prototypic cytoplasmic protein) and actin mRNA (as a prototypic mRNA) over time.

[2] = system: Bcl-2; experiment: SPR binding of Casp8p41 to purified recombinant Bcl-2; details: Bcl-2 Arg146Ala vs Bcl-2, SPR
Experimental: After plasmids encoding GST tagged proteins were transformed into E. coli BL21 or DH5α by heat shock, bacteria were grown to an optical density of 0.8 and induced with 1 mM IPTG for 3 hours at 37° C. Bacteria were disrupted by freezing and thawing in calcium- and magnesium-free Dulbecco's phosphate buffered saline (PBS) containing 0.1% Triton X-100, 2 μg/mL aprotinin, 10 μg/mL leupeptin, 2 μg/mL pepstatin, and 1 mM PMSF, then sonicated three times for 15 sec/min on ice. GST-tagged proteins were purified with glutathione-agarose (Thermo Fisher Scientific, Rockford, Ill.).
Proteins for SPR were further purified by FPLC on Superdex 5200, concentrated in a centrifugal concentrator (Centricon, Millipore), dialyzed against Biacore buffer (10 mM HEPES (pH 7.4), 150 mM NaCl, 0.05 mM EDTA, and 0.005% (w/v) Polysorbate 20) and stored at 4° C. for <48 hours before use. Binding assays were performed at 25° C. on a Biacore 3000 biosensor after proteins were immobilized on a CMS chip (GE Healthcare). Ligands were injected at 30 μL/minute for 1 minute in Biacore buffer. Bound protein was allowed to dissociate in Biacore buffer at 30 μL/minute for 10 minutes and then desorbed with 2 M MgCl2. Binding kinetics were derived using BIA evaluation software (Biacore, Uppsala, Sweden).

[3] = system: latently HIV infected CD4 T cells; experiment: Ex vivo HIV reactivation (αCD3/αCD28) in CD4 T cells from suppressed HIV-infected patients; assay type: cell-based, human
Experimental: FIGS. 10A-10E. Selective Bcl-2 inhibition reduces HIV DNA associated with cells after viral reactivation ex vivo. […] After 72 hours, cell associated HIV DNA was measured. FIG. 10B, Freshly obtained peripheral CD4 T cells from an additional 16 suppressed HIV-infected patients were treated with ABT-199 or DMSO followed by αCD3/αCD28 for 72 hours before cell associated HIV DNA was measured. Depicted is the ratio of HIV DNA in ABT-199 treated vs. diluent treated samples for each patient with measurable HIV DNA in the diluent sample (n=11). FIG. 10C, Primary CD4 T cells from HIV-infected subjects were treated with ABT-199 or diluent and assayed for intracellular Casp8p41 and active caspase 3 in the TCM subset. Representative data of three independent subjects. FIG. 10D, Primary CD4 T cells from four HIV-infected subjects were treated with venetoclax or diluent and induced to reactivate HIV using CD3/CD28, and cell death measured in HIV P24 positive or negative cells using activated caspase 3 staining. FIG. 10E, HIV RNA was measured in cell culture supernatant from 6 of the 11 patient experiments from FIG. 10B.
Jurkat and Jurkat/Bcl-2 cells were infected overnight, while primary PHA-activated CD4 T cells were infected for 6 hours with HIV-1IIIb (NIH AIDS Reagent Program). Aliquots of the same infectious supernatant were used for all experiments. Cells were then washed three times and incubated in fresh medium. At the indicated time points, HIV-1 p24 in the cell culture supernatant was measured by RETROTEK™ ELISA kits (Zeptometrix Corporation) according to manufacturer's protocol. […] Briefly, total DNA was extracted using the Qiagen DNeasy Blood and Tissue kit (Hilden, Germany) and analyzed by a real-time polymerase chain reaction (PCR) assay specific for HIV-LTR and β-globin. […] Total HIV-1 DNA was compared and normalized with genomic DNA, determined by β-globin. HIV-1 proviral DNA levels were expressed as HIV-1 copies/β-globin genomic equivalent of 10^6 cells.

[4] = in vivo; cited from earlier work
[5] = system: HIV-1IIIb; experiment: Acute HIVIIIb infection of primary CD4 T cells in vitro (viability, p24, cell associated HIV DNA); assay type: cell-based
Excerpt: (§1) Jurkat cells and HEK 293T cells were obtained from American Type Culture Collection (Manassas, Va.). Jurkat/Bcl-2 cells were created by transfecting Jurkat with a pcDNA-3 encoding Bcl-2 (obtained from Dr. Stan Korsmeyer), selecting for 30 days, and assessing Bcl-2 expression by immunoblotting. HIV-uninfected PBMCs were harvested by ficoll gradient centrifugation from Leukocyte Reduction System apheresis chambers provided by healthy volunteer blood donors. […]
Immunophenotyping of T cell subsets was performed using multicolor flow cytometry with monoclonal antibodies to human CD3 (Alexa700, BD Pharmingen), CD4 (FITC, BD Pharmingen), CD8 (Pacific Blue, BD Pharmingen), CD27 (PE, BD Pharmingen), and CD45RO (ECD, Beckman Coulter). […] Intracellular expression of Casp8p41 was assessed as described elsewhere (Cummins et al., AIDS Res. Hum. Retroviruses, 30:476-479 (2014)). Cell death was measured using LIVE/DEAD® Fixable Aqua dead cell stain (Invitrogen) or TUNEL (Roche) according to manufacturers' protocols. Cell proliferation was measured using a CellTrace™ CFSE Cell Proliferation Kit (Life Technologies) according to manufacturer's protocol. […] FACS data were analyzed using FlowJo software (Tree Star Inc). […]

[6] = system: Jurkat T cells; experiment: TUNEL cell death in Jurkat T cells transfected with EGFP-Casp8p41, vector control or no DNA; assay type: cell-based; details: Jurkat cells expressing eGFP-Casp8p41, 1 μM
Experimental: HEK 293T cells were transfected using Lipofectamine (Invitrogen, Carlsbad, Calif.) according to manufacturer's protocol. Jurkat cells were transfected using a square wave electroporator (BXT, San Diego, Calif.) at 320 V. Immunophenotyping of T cell subsets was performed using multicolor flow cytometry with monoclonal antibodies to human CD3 (Alexa700, BD Pharmingen), CD4 (FITC, BD Pharmingen), CD8 (Pacific Blue, BD Pharmingen), CD27 (PE, BD Pharmingen), and CD45RO (ECD, Beckman Coulter). Central memory T cells (TCM) were defined as CD3^+CD4^+CD27^+CD45RO^+, and effector memory T cells (TEM) were defined as CD3^+CD4^+CD27^−CD45RO^+/− (Brenchley et al., J. Exp. Med., 200:749-759 (2004)). Intracellular expression of Casp8p41 was assessed as described elsewhere (Cummins et al., AIDS Res. Hum. Retroviruses, 30:476-479 (2014)). Cell death was measured using LIVE/DEAD® Fixable Aqua dead cell stain (Invitrogen) or TUNEL (Roche) according to manufacturers' protocols. Cell proliferation was measured using a CellTrace™ CFSE Cell Proliferation Kit (Life Technologies) according to manufacturer's protocol. FACS analysis was performed on either a FACScan or LSRII flow cytometer (BD Biosciences) based on multiparameter needs. FACS data were analyzed using FlowJo software (Tree Star Inc).

[7] = system: Primary CD4 T cells from ART-suppressed HIV positive patients; experiment: Viability by trypan blue exclusion of CD4 T cells from ART-suppressed HIV positive patients; assay type: cell-based, human; details: bulk primary CD4 T cells from HIV infected ART suppressed patients; 1 μM; 24 hours
Experimental: FIGS. 11A-11D. […] FIG. 11A, Jurkat T cells pretreated with increasing concentrations of venetoclax or diluent DMSO were transfected with EGFP-Casp8p41, vector control, or no DNA, and assayed for cell death by TUNEL. Data are representative of three independent experiments. FIG. 11B, Primary CD4 T cells from seven uninfected donors were treated with venetoclax (1 μM) or diluent, and assayed for cell viability by flow cytometry over 5 days. FIG. 11C, Primary CD4 T cells from four uninfected donors were stimulated with phytohemagglutinin (2 μg/mL) in the presence of venetoclax (1 μM) or diluent and assayed for proliferation by CFSE staining. FIG. 11D, Primary CD4 T cells from seven ART-suppressed HIV positive patients were treated with venetoclax (1 μM) or DMSO control for 24 hours and assessed for viability by trypan blue exclusion.

[8] = system: Primary CD4 T cells from uninfected donors; experiment: Mitogen-induced proliferation of uninfected CD4 T cells by CFSE staining; assay type: cell-based, human; details: phytohemagglutinin, 1 μM, Day 3
Excerpt: as §1
(§2) Immunophenotyping of T cell subsets was performed using multicolor flow cytometry with monoclonal antibodies to human CD3 (Alexa700, BD Pharmingen), CD4 (FITC, BD Pharmingen), CD8 (Pacific Blue, BD Pharmingen), CD27 (PE, BD Pharmingen), and CD45RO (ECD, Beckman Coulter). […] Intracellular expression of Casp8p41 was assessed as described elsewhere (Cummins et al., AIDS Res. Hum. Retroviruses, 30:476-479 (2014)). Cell death was measured using LIVE/DEAD® Fixable Aqua dead cell stain (Invitrogen) or TUNEL (Roche) according to manufacturers' protocols. Cell proliferation was measured using a CellTrace™ CFSE Cell Proliferation Kit (Life Technologies) according to manufacturer's protocol. […] FACS data were analyzed using FlowJo software (Tree Star Inc).

[9] = cited from earlier work
[10] = system: Primary CD4 T cells from uninfected donors; experiment: Viability of primary uninfected CD4 T cells by flow cytometry; assay type: cell-based, human; details: N=7, 1 μM, Day 5
Excerpt: as §1, §2

CC[C@@]1(O)C(=O)OCc2c1cc1n(c2=O)Cc2cc3ccccc3nc2-1 [CPT, camptothecin]
eGFP negative cells ([1]; by 48 hours): 97% | cell viability by cellular ATP content and light scatter ([1]; compared to diluent-treated cells): decreased cell viability | reduction of detectable actin message compared to diluent control ([1]; qRT-PCR): 34% | detectable eGFP (eGFP+ cells) ([1]; {}): 17 % eGFP+

DMNLLDIFIEMEKRVILGEGKLDILKRVCAQ (Casp8p41 BH3-like peptide) [Casp8p41 activator peptide]
decrease of affinity of Bcl-2 by substitution of Ala for Bcl-2 Arg146 [2]: 250 fold

CC1(C)CCC(CN2CCN(c3ccc(C(=O)NS(=O)(=O)c4ccc(NCC5CCOCC5)c([N+](=O)[O-])c4)c(Oc4cnc5[nH]ccc5c4)c3)CC2)=C(c2ccc(Cl)cc2)C1 [venetoclax]
samples exhibiting a decrease of cell associated HIV DNA ([3]; freshly isolated primary CD4 T cell samples, 8 of 11): 73% | median cell death (active caspase 3) in p24− cells ([3]; αCD3/αCD28 reactivated, control 2.5%, P=0.189): 10.3% | proportion of HIV p24+ CD4+ cells that are active caspase 3+ ([3]; αCD3/αCD28 reactivated, control 23%, P=0.026): 47 % active caspase 3+ | peak plasma levels [4]: up to 5 μM | survival or mitogen-induced proliferation of mock-infected CD4 T cells [5]: had no effect | increase in cell death, mean difference vs diluent [6]: 25.7±10.3% | viability, mean difference vs DMSO control [7]: −4.7±1.6 % viable | mean difference in percent CFSE low cells [8]: -1.1±7.9% | cases of dose limiting neutropenia ([9]; 40 NHL patients receiving monotherapy): 2 cases | tolerability in early phase clinical trials ([9]; human, in vivo): well tolerated | viability, mean difference vs control treated cells [10]: −7.2±4.8%
